Patent US20240199654A1, “CTLA-4 SMALL MOLECULE DEGRADATION AGENT AND APPLICATION THEREOF” (SUZHOU GUOKUANG PHARMTECH. CO., LTD., priority 2021, published 2024)

Columns and labels:
[1] = target: T1, LRBA and CTLA-4 reporting system (Homo sapiens, UniProt P16410+P50851); experiment: LRBA/CTLA-4 protein-protein interaction reporting system, dual luciferase assay in HEK293 cells; assay type: cell-based; details: HEK293 cells co-transfected with LRBA and CTLA-4 reporting system, 24 h after dosing; read-out: In vitro activity (IC50: concentration of compounds that inhibit 50% of reporting system activity)
T1 construct: expressed in transfected cells; host or cells: HEK293
Procedure: HEK293 cells were spread on 96-well plates, and LRBA and CTLA-4 reporting system were co-transfected into HEK293 cells after 24 h. After 24 h, different compounds with final concentrations of 0.01, 0.033, 0.10, 0.33, 1.00, 3.33, 10.00, 33.33, and 100.00 μM were added. 24 h after dosing, the cell culture medium was removed and the cells were washed with cold PBS. Then the activity of the compounds were detected by the dual luciferase assay kit, and IC50 values were calculated according to the results.
For the compounds with strong activity (IC50<200 nM), the degradation of CTLA-4 protein was further detected by Western Blot. • IC50: Concentration of compounds that inhibit 50% of reporting system activity The size of IC50 is divided into four levels: • ++++, IC50<200 nM; +++, IC50 is 200-1000 nM; ++, IC50 is 1000-2000 nM; +, IC50>2000 nM.

[2] = tested on: Mouse colon cancer MC-38 cells; experiment: In vivo activity research of xenograft model (MC-38); parameters: species or system C57BL/6 mice; details: for TGI(%): 30 mg/kg, oral, once a day, MC-38 subcutaneous in C57BL/6 mice
Procedure: 1. Cell culture: Mouse colon cancer MC-38 cells were adherently cultured in vitro. The culture conditions were RPMI-1640 medium with 10% fetal bovine serum, 100 U/mL penicillin and 100 μg/mL streptomycin, 37° C. 5% CO2 incubator culture. Passaged with routine processing two to three times a week. When the cell saturation was 80%-90% and the number reached the requirement, the cell count was collected, and the cell concentration was adjusted for experimental inoculation. 2. Animals: C57BL/6 mice, female, 7 weeks old, 18-20 grams in weight, 8 mice per group. 3. Tumor inoculation: 0.02 mL (0.2×10^6) MC-38 cells were subcutaneously inoculated into the right back of each mouse. On the 7th day after inoculation, the tumor volumes of the animals were measured, and then the groups were randomized according to tumor volume and administration was started. 4. Experimental indicators: The experimental indicators were used to examine whether the tumor growth is inhibited, delayed or cured. Tumor diameters were measured with vernier calipers two to three times a week. The calculation formula of tumor volume is: V=0.5a×b^2, wherein a and b respectively represent the long and short diameters of tumors. The anti-tumor effect of the compounds was expressed by TGI (%). TGI (%), reflecting tumor growth inhibition rate. Calculation of TGI(%): TGI(%)=[(1-(average tumor volume at the end of administration of a treatment group−average tumor volume at the beginning of administration of the treatment group))/(average tumor volume at the end of treatment of the solvent control group−average tumor volume at the beginning of treatment of the solvent control group)]×100%. 5. Animal experiment grouping, administration program and experimental results: […]

[3] = tested on: Non-small cell lung cancer; details: clinical; cited from earlier work
Hepatocellular carcinoma = details: clinical; cited from earlier work
[4] = tested on: Colorectal cancer (MSI-H/dMMR); details: clinical; cited from earlier work

T1 sequence (P16410 36-223): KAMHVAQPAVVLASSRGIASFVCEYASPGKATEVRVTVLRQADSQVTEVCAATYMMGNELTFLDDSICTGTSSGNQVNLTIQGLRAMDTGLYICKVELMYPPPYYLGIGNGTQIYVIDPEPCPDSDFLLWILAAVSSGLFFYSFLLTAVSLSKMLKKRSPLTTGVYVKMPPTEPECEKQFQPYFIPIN
T1 sequence (P50851 whole entry): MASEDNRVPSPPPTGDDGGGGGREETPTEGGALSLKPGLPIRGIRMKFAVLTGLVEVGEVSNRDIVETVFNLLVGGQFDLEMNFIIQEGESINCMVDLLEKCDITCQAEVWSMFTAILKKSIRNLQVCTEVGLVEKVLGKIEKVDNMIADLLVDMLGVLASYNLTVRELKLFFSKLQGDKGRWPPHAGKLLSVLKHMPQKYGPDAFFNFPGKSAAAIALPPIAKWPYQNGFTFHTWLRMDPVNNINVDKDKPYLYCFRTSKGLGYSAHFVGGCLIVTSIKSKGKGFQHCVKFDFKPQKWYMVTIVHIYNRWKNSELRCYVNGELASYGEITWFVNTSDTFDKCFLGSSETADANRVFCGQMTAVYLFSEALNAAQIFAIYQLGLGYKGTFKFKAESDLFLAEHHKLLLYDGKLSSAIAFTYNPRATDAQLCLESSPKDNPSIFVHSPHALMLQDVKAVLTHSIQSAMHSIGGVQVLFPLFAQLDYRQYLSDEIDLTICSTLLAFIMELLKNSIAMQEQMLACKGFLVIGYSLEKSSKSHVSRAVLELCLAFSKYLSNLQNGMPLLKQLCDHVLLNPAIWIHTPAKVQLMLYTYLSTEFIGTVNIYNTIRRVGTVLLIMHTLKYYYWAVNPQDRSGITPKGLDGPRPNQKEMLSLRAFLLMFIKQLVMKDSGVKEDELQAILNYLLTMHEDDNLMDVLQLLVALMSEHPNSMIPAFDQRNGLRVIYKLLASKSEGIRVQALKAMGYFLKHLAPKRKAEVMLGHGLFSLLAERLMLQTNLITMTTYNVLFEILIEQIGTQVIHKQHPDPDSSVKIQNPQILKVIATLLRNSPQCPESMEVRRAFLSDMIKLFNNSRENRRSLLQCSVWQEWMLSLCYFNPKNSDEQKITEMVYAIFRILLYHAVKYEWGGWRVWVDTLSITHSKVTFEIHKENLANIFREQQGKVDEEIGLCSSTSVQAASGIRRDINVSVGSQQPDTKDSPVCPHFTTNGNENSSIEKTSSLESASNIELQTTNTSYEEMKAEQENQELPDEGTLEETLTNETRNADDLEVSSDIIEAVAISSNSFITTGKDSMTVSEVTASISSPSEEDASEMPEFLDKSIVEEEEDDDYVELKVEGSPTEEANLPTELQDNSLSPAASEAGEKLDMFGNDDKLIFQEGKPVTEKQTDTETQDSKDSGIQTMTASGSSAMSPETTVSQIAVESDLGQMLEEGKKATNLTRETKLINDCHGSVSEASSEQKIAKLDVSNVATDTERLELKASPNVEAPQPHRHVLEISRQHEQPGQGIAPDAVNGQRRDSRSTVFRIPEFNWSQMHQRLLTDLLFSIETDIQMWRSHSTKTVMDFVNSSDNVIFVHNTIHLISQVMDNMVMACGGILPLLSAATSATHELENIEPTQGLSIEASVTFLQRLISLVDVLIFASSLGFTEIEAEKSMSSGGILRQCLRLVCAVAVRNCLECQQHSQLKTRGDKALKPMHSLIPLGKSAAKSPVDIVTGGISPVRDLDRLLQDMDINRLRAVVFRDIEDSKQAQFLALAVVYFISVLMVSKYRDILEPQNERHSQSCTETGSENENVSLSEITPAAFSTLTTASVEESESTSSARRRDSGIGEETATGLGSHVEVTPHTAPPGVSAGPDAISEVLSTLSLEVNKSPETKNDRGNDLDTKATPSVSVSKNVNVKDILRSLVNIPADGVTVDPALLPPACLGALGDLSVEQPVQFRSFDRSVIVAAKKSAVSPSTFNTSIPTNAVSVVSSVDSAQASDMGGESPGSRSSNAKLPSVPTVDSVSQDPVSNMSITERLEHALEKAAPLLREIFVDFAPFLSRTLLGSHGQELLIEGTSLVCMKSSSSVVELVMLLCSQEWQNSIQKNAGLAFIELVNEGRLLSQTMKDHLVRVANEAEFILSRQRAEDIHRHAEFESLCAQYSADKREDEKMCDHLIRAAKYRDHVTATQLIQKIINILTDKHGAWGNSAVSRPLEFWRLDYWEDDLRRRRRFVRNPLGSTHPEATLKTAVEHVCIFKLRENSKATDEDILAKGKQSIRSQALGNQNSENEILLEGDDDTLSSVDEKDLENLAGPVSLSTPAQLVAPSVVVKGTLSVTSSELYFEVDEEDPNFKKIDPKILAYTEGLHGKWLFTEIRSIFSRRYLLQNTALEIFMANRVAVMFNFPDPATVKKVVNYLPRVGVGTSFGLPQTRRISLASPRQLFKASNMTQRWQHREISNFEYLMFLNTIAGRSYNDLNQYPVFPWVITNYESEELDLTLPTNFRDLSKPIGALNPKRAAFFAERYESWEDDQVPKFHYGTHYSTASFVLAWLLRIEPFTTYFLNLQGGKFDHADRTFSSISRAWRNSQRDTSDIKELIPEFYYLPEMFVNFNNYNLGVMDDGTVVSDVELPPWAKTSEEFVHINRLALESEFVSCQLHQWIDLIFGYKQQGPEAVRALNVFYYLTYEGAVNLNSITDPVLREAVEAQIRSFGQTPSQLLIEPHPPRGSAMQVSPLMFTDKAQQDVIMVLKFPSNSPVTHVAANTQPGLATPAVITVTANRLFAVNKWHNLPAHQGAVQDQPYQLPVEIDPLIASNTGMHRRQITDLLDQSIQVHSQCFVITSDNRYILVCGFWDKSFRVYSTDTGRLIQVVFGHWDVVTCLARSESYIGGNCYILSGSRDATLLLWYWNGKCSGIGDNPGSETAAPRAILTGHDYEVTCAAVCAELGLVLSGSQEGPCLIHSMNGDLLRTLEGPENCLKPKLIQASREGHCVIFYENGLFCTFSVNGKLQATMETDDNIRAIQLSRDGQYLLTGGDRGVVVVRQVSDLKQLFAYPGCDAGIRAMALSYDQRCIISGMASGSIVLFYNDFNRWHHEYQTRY

Compound	IC50 [1] [nM]	further results
c1ccc2ncc(-c3ccnc(N4CCNCC4)n3)cc2c1 [Compound 18, 3-(2-(piperazin-1-yl)pyrimidin-4-yl)quinoline]	< 200	TGI(%) [2]: 90%; anti-tumor effect in tumor transplantation model in vivo ([2]; MC-38 model): excellent anti-tumor effects
C[C@@H]1CN(c2nccc(-c3cnc4ccccc4c3)n2)C[C@H](C)N1 [Compound 22, 3-(2-((3S,5R)-3,5-dimethylpiperazin-1-yl)pyrimidin-4-yl)quinoline]	> 2000	–
CN1CCN(c2nccc(-c3cnc4ccccc4c3)n2)CC1 [Compound 23, 3-(2-(4-methylpiperazin-1-yl)pyrimidin-4-yl)quinoline]	> 2000	–
c1ccc2ncc(-c3ccnc(N4CCCNCC4)n3)cc2c1 [Compound 24, 3-(2-(1,4-diaza-1-yl)pyrimidin-4-yl)quinoline]	> 2000	–
NCCNc1nccc(-c2cnc3ccccc3c2)n1 [Compound 26, N-(4-(quinolin-3-yl)pyrimidin-2-yl)ethane-1,2-diamine]	< 200	–
NCCCNc1nccc(-c2cnc3ccccc3c2)n1 [Compound 27, N-(4-(quinolin-3-yl)pyrimidin-2-yl)propane-1,3-diamine]	1000 to 2000	–
c1cc(-c2cnc3c(c2)OCCO3)nc(N2CCNCC2)n1 [Compound 28, 7-(2-(piperazin-1-yl)pyrimidin-4-yl)-2,3-dihydro-[1,4]dioxy[2,3-b]pyridine]	> 2000	–
c1cc(-c2ccc3c(c2)OCCO3)nc(N2CCNCC2)n1 [Compound 29, 4-(2,3-dihydrobenzo[b][1,4]dioxin-6-yl)-2-(piperazin-1-yl)pyrimidine]	> 2000	–
COc1cc(-c2ccnc(N3CCNCC3)n2)cnc1OC [Compound 30, 4-(5,6-dimethoxy-pyridin-3-yl)-2-piperazin-1-yl-pyrimidine]	> 2000	–
COc1ccc(-c2ccnc(N3CCNCC3)n2)cc1OC [Compound 31, 4-(3,4-dimethoxy-phenyl)-2-piperazin-1-yl-pyrimidine]	> 2000	–
c1ccc2c(-c3ccnc(N4CCNCC4)n3)c[nH]c2c1 [Compound 32, 3-(2-(piperazin-1-yl)pyrimidin-4-yl)-1H-indole]	200 to 1000	–
c1ccc2c(-c3ccnc(N4CCNCC4)n3)coc2c1 [Compound 33, 4-(benzofuran-3-yl)-2-(piperazin-1-yl)pyrimidine]	200 to 1000	–
COc1cc(-c2ccnc(N3CCNCC3)n2)cnc1O [Compound 34, 3-methoxy-5-(2-piperazin-1-yl-pyrimidin-4-yl)-pyridin-2-ol]	> 2000	–
c1ccc2ncc(-c3ncnc(N4CCNCC4)n3)cc2c1 [Compound 35, 3-(4-(piperazin-1-yl)-1,3,5-triazin-2-yl)quinoline]	< 200	–
c1ccc2ncc(-c3nc(N4CCNCC4)nc4ccccc34)cc2c1 [Compound 36, 2-(piperazin-1-yl)-4-(quinolin-3-yl)quinazoline]	200 to 1000	–
c1ccc2ncc(-c3nc(N4CCNCC4)nc4c3CCCC4)cc2c1 [Compound 37, 2-(piperazin-1-yl)-4-(quinolin-3-yl)-5,6,7,8-tetrahydroquinazoline]	200 to 1000	–
Nc1cnc(N2CCNCC2)nc1-c1cnc2ccccc2c1 [Compound 38, 3-(5-amino-2-(piperazin-1-yl)pyrimidin-4-yl)quinoline]	< 200	–

Compound	IC50 [1] [nM]	further results
COc1cc(-c2cnc3ccccc3c2)nc(N2CCNCC2)n1 [Compound 39, 3-(6-methoxy-2-(piperazin-1-yl)pyrimidin-4-yl)quinoline]	< 200	–
FC(F)(F)c1cc(-c2cnc3ccccc3c2)nc(N2CCNCC2)n1 [Compound 40, 3-(2-(piperazin-1-yl)-6-(trifluoromethyl)pyrimidin-4-yl)quinoline]	< 200	–
c1ccc2ncc(-c3cc4nccn4c(N4CCNCC4)n3)cc2c1 [Compound 41, 3-(5-(piperazin-1-yl)imidazo[1,2-c]pyrimidin-7-yl)quinoline]	200 to 1000	–
N#Cc1cc(-c2cnc3ccccc3c2)nc(N2CCNCC2)n1 [Compound 42, 3-(6-cyano-2-(piperazin-1-yl)pyrimidin-4-yl)quinoline]	< 200	–
COc1cnc(N2CCNCC2)nc1-c1cnc2ccccc2c1 [Compound 43, 3-(5-methoxy-2-(piperazin-1-yl)pyrimidin-4-yl)quinoline]	< 200	–
c1ccc2ncc(-c3cc(N4CCNCC4)ncn3)cc2c1 [Compound 44, 3-(6-(piperazin-1-yl)pyrimidin-4-yl)quinoline]	< 200	TGI(%) [2]: 85%
Cn1cnc2c(-c3cnc4ccccc4c3)nc(N3CCNCC3)nc21 [Compound 45, 3-(9-methyl-2-(piperazin-1-yl)-9H-purin-6-yl)quinoline]	200 to 1000	–
Fc1cnc(N2CCNCC2)nc1-c1cnc2ccccc2c1 [Compound 46, 3-(5-fluoro-2-(piperazin-1-yl)pyrimidin-4-yl)quinoline]	< 200	–
Nc1cc(-c2cnc3ccccc3c2)nc(N2CCNCC2)n1 [Compound 47, 2-(piperazin-1-yl)-6-(quinolin-3-yl)pyrimidin-4-amine]	< 200	–
Nc1cc(N2CCNCC2)nc(-c2cnc3ccccc3c2)n1 [Compound 48, 6-(piperazin-1-yl)-2-(quinolin-3-yl)pyrimidin-4-amine]	1000 to 2000	–
c1ccc2ncc(-c3cc(N4CCOCC4)nc(N4CCNCC4)n3)cc2c1 [Compound 49, 4-(2-(piperazin-1-yl)-6-(quinolin-3-yl)pyrimidin-4-yl)morpholine]	200 to 1000	–
c1ccc2ncc(-c3nc(N4CCNCC4)ncc3C3CC3)cc2c1 [Compound 50, 3-(5-cyclopropyl-2-(piperazin-1-yl)pyrimidin-4-yl)quinoline]	< 200	–
COc1ccc(-c2cc(-c3cnc4ccccc4c3)nc(N3CCNCC3)n2)cc1 [Compound 51, 3-(6-(4-methoxyphenyl)-2-(piperazin-1-yl)pyrimidin-4-yl)quinoline]	< 200	–
Cn1ncc2c(-c3cnc4ccccc4c3)nc(N3CCNCC3)nc21 [Compound 52, 3-(1-methyl-6-(piperazin-1-yl)-1H-pyrazolo[3,4-d]pyrimidin-4-yl)quinoline]	1000 to 2000	–
Cc1c(-c2cnc3ccccc3c2)ncnc1N1CCNCC1 [Compound 53, 3-(5-methyl-6-(piperazin-1-yl)pyrimidin-4-yl)quinoline]	< 200	–
Nivolumab [O drug]	–	ORR [3]: single O drug group ORR = 14.5%; ORR (Hepatocellular carcinoma): single O drug group ORR = 15%; ORR [4]: single O drug group ORR = 36%
